According to patent publication US20160130278A1 (TAISHO PHARMACEUTICAL CO., LTD, priority 2013, published 2016):

The compounds below were run against T1, human type 1 glycine transporter (GlyT1) (Homo sapiens, UniProt P48067) (assay: Glycine uptake inhibition experiment ([3H]glycine uptake)). Conditions: GlyT1.
T1 construct: T98G cells (glioma cells) expressing human type 1 glycine transporter (GlyT1) were used
T1 sequence (P48067 1-706): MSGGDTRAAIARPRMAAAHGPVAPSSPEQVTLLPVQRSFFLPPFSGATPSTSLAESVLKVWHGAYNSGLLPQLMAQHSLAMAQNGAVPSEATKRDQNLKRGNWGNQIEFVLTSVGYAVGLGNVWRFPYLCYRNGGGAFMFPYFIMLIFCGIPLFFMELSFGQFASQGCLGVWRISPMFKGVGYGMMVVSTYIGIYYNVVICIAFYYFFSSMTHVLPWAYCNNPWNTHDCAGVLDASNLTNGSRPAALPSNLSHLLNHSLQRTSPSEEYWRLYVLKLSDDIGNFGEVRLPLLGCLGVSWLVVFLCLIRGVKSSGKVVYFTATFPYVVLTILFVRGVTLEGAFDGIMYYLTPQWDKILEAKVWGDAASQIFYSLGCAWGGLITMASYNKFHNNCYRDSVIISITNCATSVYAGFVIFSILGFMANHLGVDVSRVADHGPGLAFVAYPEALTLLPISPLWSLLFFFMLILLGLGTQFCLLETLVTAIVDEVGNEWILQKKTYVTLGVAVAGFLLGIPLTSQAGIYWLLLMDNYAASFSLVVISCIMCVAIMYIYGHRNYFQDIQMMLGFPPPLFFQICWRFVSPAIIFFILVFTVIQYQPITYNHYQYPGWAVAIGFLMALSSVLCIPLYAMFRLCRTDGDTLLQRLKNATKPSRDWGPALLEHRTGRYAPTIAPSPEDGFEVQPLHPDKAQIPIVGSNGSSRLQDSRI
Assay type: cell-based
How it was run: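 T98G glioma cells expressing human GlyT1 were pretreated 10 min with compound in HEPES buffer pH 7.4 (0.2% BSA), then incubated with compound plus 250 nM final [3H]glycine for 15 min at room temperature. Intracellular radioactivity was counted after NaOH lysis; 10 μM ALX5407 defined non-specific uptake. IC50 came from 10^−9–10^−5 M curves.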

Row | IC50 | Structure (SMILES)
1 | 95 nM | O=C(N[C@@H](c1cccc(Br)c1)[C@]1(O)CC[C@@H](F)CC1)c1nccc(C(F)(F)F)c1Cl [Compound 110, N-[(S)-(3-bromophenyl)(cis-4-fluoro-1-hydroxycyclohexyl)methyl]-3-chloro-4-(trifluoromethyl)pyridine-2-carboxamide]
2 | 37 nM | O=C(NC(c1cccc(F)c1Cl)[C@]1(O)CC[C@@H](F)CC1)c1nccc(C(F)(F)F)c1Cl (single isomer, unassigned) [Compound 213, 3-chloro-N-[(2-chloro-3-fluorophenyl)(cis-4-fluoro-1-hydroxycyclohexyl)methyl]-4-(trifluoromethyl)pyridine-2-carboxamide]
3 | 38 nM | O=C(NC(c1cccc(Br)c1)C1(O)CCCCC1)c1nccc(C(F)(F)F)c1Cl (single isomer, unassigned) [Compound 42, N-[(3-bromophenyl)(1-hydroxycyclohexyl)methyl]-3-chloro-4-(trilfuoromethyl)pyridine-2-carboxamide]

The next lines start with the compound.

Row | Structure (SMILES) | IC50
4 | O=C(NC(c1cccc(C(F)(F)F)c1)C1(O)CCCC1)c1nccc(C(F)(F)F)c1Cl (stereo not shown) [Compound 81, 3-chloro-N-{(1-hydroxycyclopentyl)[3-(trifluoromethyl)phenyl]methyl}-4-(trifluoromethyl)pyridine-2-carboxamide] | 960 nM
5 | O=C(NC(c1ncccc1Cl)C1(O)CCC(F)(F)CC1)c1nccc(C(F)(F)F)c1Cl (single isomer, unassigned) [Compound 319, 3-chloro-N-[(3-chloropyridin-2-yl)(4,4-difluoro-1-hydroxycyclohexyl)methyl]-4-(trifluoromethyl)pyridine-2-carboxamide] | 1800 nM
6 | CCn1cc(-c2cccc(C(NC(=O)c3c(Cl)ccc(C(F)(F)F)c3Cl)C3(O)CCC(F)(F)CC3)c2)cn1 (single isomer, unassigned) [Compound 222, 2,6-dichloro-N-{(4,4-difluoro-1-hydroxycyclohexyl)[3-(1-ethyl-1H-pyrazol-4-yl)phenyl]methyl}-3-(trifluoromethyl)benzamide] | 190 nM

Same assay, conditions: human GlyT1

Row | IC50 | Structure (SMILES)
7 | 7500 nM | O=C(NC(c1cccc(Cl)n1)C1(O)CCCC1)c1nccc(C(F)(F)F)c1Cl (single isomer, unassigned) [Compound 398, 3-chloro-N-[(6-chloropyridin-2-yl)(1-hydroxycyclopentyl)methyl]-4-(trifluoromethyl)pyridine-2-carboxamide]
